Source: patent US9358224B2, “Pharmaceutical formulation comprising a phosphodiesterase inhibitor” (CHIESI FARMACEUTICI S.p.A., priority 2011, dated 2016)

Test: Chemical stability study of the pMDI formulation at 25° C./60% RH
Format: physicochemical
Conditions: 1 and 3 months at 25° C./60% RH
Description: Physical and chemical stability of the formulation reported in table 1 has been assessed in a stability study at 1 and 3 months at 25° C./60% relative humidity (RH).
Chemical stability and performances data of the formulation are reported in Table 2, wherein “mean delivered dose intra-can” means the mean delivered dose of ten actuations on the same can (3 actuations at the beginning, 4 actuations in the middle and 3 actuations at the end of the life of the can).

## CS(=O)(=O)Nc1ccc(C(=O)OC(Cc2c(Cl)c[n+]([O-])cc2Cl)c2ccc(OC(F)F)c(OCC3CC3)c2)cc1OCC1CC1 (single isomer, unassigned; (-)) [Compound C2, (−)-3-Cyclopropylmethoxy-4-methanesulfonylamino-benzoic acid 1-(3-cyclopropylmethoxy-4-difluoromethoxy-phenyl)-2-(3,5-dichloro-1-oxy-pyridin-4-yl)-ethyl ester]
  chemical stability of C2 in the formulation (in words): no degradation during stability
